{"source": "patent US5710130A", "about": "“Antithrombotic agents” (Eli Lilly and Company, priority 1995, dated 1998)", "note": "Counter-ions that a name gives are not always drawn."}
{"tested_on": "human plasma", "experiment": "Human plasma anticoagulation, thrombin time (TT)", "type": "biochemical", "conditions": "concentration required to double thrombin time, linear extrapolation", "description": "(§1) Dog plasma and rat plasma is obtained from conscious mixed-breed hounds (either sex, Hazelton-LRE, Kalamazoo, Mich., U.S.A.) or from anesthetized male Sprague-Dawley rats (Harlan Sprague-Dawley, Inc., Indianapolis, Ind., U.S.A.) by venipuncture into 3.8 percent citrate. Fibrinogen is prepared from in-date ACD human blood as the fraction I-2 according to previous procedures and specifications. […] Human fibrinogen is also purchased as 98 percent pure/plasmin free from American Diagnostica, Greenwich, Conn. Coagulation reagents ACTIN, Thromboplastin, and Human plasma are from Baxter Healthcare Corp., Dade Division, Miami, Fla. Bovine thrombin from Parke-Davis ([…], Mich.) is used for coagulation assays in plasma.\n(§2) Coagulation assay procedures are as previously described. […] A CoAScreener coagulation instrument (American LABor, Inc.) is used for all coagulation assay measurements. The prothrombin time (PT) is measured by adding 0.05 mL saline and 0.05 mL Thromboplastin-C reagent to 0.05 mL test plasma. The activated partial thromboplastin time (APTT) is measured by incubation of 0.05 mL test plasma with 0.05 mL Actin reagent for 120 seconds followed by 0.05 mL CaCl2 (0.02M). The thrombin time (TT) is measured by adding 0.05 mL saline and 0.05 mL thrombin (10 NIH units/mL) to 0.05 mL test plasma. The compounds of Formula I are added to human or animal plasma over a wide range of concentrations to determine prolongation effects on the APTT, PT, and TT assays. Linear extrapolations are performed to estimate the concentrations required to double the clotting time for each assay."}
{"smiles": "CCS(=O)(=O)N[C@H](Cc1ccccc1)C(=O)N1CCC[C@H]1C(=O)NCCCCN=C(N)N.Cl", "note": "[Example 1, EtSO2 -D-Phe-Pro-Agm.Hcl]", "Human Plasma Anticoagulation 2x Clotting time TT": "250 ng/mL"}
{"smiles": "N=C(N)NCCCCCCNC(=O)[C@@H]1CCCN1C(=O)[C@H](N)Cc1ccccc1", "note": "[Example 5, D-Phe-Pro-NH(CH2)6 NHC(NH)NH2.HCl]", "Human Plasma Anticoagulation 2x Clotting time TT": "30,000 ng/mL"}
{"smiles": "N=C(N)NCCCCCNC(=O)[C@@H]1CCCN1C(=O)[C@H](N)Cc1ccccc1", "note": "[Example 6, D-Phe-Pro-NH(CH2)5 NHC(NH)NH2.HCl]", "Human Plasma Anticoagulation 2x Clotting time TT": "390 ng/mL"}
{"smiles": "N=C(N)NCCCNC(=O)[C@@H]1CCCN1C(=O)[C@H](N)Cc1ccccc1", "note": "[Example 7, D-Phe-Pro-NH(CH2)3 NHC(NH)NH2.HCl]", "Human Plasma Anticoagulation 2x Clotting time TT": "490 ng/mL"}
{"smiles": "N=C(N)NCc1ccc(CNC(=O)[C@@H]2CCCN2C(=O)[C@H](N)Cc2ccccc2)cc1", "note": "[Example 9, D-Phe-Pro-p-NHCH2 C6 H4 CH2 NHC(NH)NH2.2TFA]", "Human Plasma Anticoagulation 2x Clotting time TT": "> 91,000 ng/mL"}
{"smiles": "NCc1ccc(CNC(=O)[C@@H]2CCCN2C(=O)[C@H](N)Cc2ccccc2)cc1", "note": "[Example 10, D-Phe-Pro-p-NHCH2 C6 H4 CH2 NH2.HCl]", "Human Plasma Anticoagulation 2x Clotting time TT": "420 ng/mL"}
{"smiles": "Nc1ccc(CNC(=O)[C@@H]2CCCN2C(=O)[C@H](N)Cc2ccccc2)cc1", "note": "[Example 13, D-Phe-Pro-p-NHCH2 C6 H4 NH2.HCl]", "Human Plasma Anticoagulation 2x Clotting time TT": "660 ng/mL"}
{"smiles": "CCS(=O)(=O)N[C@H](Cc1ccccc1)C(=O)N1CCC[C@H]1C(=O)NCCCc1ccc(C(=N)N)cc1", "note": "[Example 30, EtSO2 -D-Phe-Pro-p-NHCH2 CH2 CH2 -C6 H4 C(=NH)NH2.HCl]", "Human Plasma Anticoagulation 2x Clotting time TT": "1,000 ng/mL"}
{"smiles": "N=C(N)Nc1ccc(CNC(=O)[C@@H]2CCCN2C(=O)[C@@H]2NCC[C@@H]3CCCC[C@@H]32)cc1", "note": "[Example 38, D-1-piq-pro-p-NHCH2 C6 H4 NHC(NH)NH2.2HCl]", "Human Plasma Anticoagulation 2x Clotting time TT": "540 ng/mL"}
{"smiles": "N=C(N)Nc1ccc(CCNC(=O)[C@@H]2CCCN2C(=O)[C@@H]2NCC[C@@H]3CCCC[C@@H]32)cc1", "note": "[Example 39, D-1-piq-Pro-p-NHCH2 CH2 C6 H4 NHC(NH)NH2.2HCl]", "Human Plasma Anticoagulation 2x Clotting time TT": "5,300 ng/mL"}
{"smiles": "O=C(O)CN[C@H](CC1CCCCC1)C(=O)N1CCC[C@H]1C(=O)NCC1CCNCC1", "note": "[Example 53, HO2 CCH2 -D-Cha-Pro-4-NHCH2 -piperidine.HCl]", "Human Plasma Anticoagulation 2x Clotting time TT": "1,400 ng/mL"}
{"smiles": "N=C(N)NCCCCNC(=O)[C@@H]1CCCN1C(=O)[C@@H]1NCC[C@H]2CCCC[C@H]21", "note": "[Example 61, N-[4-[(aminoiminomethyl)amino]butyl]-1-[[(4aR,8aR)-decahydro-1(R)-isoquinolinyl]carbonyl]-1-prolinamide trihydrochloride]", "Human Plasma Anticoagulation 2x Clotting time TT": "45 ng/mL"}
{"smiles": "Nc1ccc(CNC(=O)[C@@H]2CCCN2C(=O)[C@@H](CC2CCCCC2)NCC(=O)O)cc1", "note": "[Example 62, HO2 CCH2 -D-Cha-Pro-4-NHCH2 C6 H4 NH2.HCl]", "Human Plasma Anticoagulation 2x Clotting time TT": "54 ng/mL"}
{"smiles": "Nc1ccc(CCNC(=O)[C@@H]2CCCN2C(=O)[C@@H](CC2CCCCC2)NCC(=O)O)cc1", "note": "[Example 63, HO2 CCH2 -D-Cha-Pro-4-NHCH2 CH2 C6 H4 NH2.HCl]", "Human Plasma Anticoagulation 2x Clotting time TT": "680 ng/mL"}
{"smiles": "N=C(N)c1ccc(CNC(=O)[C@@H]2CCCN2C(=O)[C@@H](CC2CCCCC2)NCC(=O)O)s1", "note": "[Example 65, N-(carboxymethyl)-D-cyclohexylalanyl-N-[[5-(aminoiminomethyl)thiophen-2-yl]methyl]-L-prolinamide hydrochloride]", "Human Plasma Anticoagulation 2x Clotting time TT": "1 ng/mL"}
{"smiles": "CCC(CC)C(=O)N[C@@H](CCC(=O)O)C(=O)N1CCC[C@H]1C(=O)NCc1ccc(C(=N)N)cc1", "note": "[Example 90, (C2 H5)2 CHCO-Glu-Pro-p-NHCH2 C6 H4 C(NH)NH2.HCl]", "Human Plasma Anticoagulation 2x Clotting time TT": "330 ng/mL"}
{"tested_on": "human plasma", "experiment": "Human plasma anticoagulation, activated partial thromboplastin time (APTT)", "type": "biochemical", "conditions": "concentration required to double APTT, linear extrapolation", "description": "as §1, §2"}
{"smiles": "CCS(=O)(=O)N[C@H](Cc1ccccc1)C(=O)N1CCC[C@H]1C(=O)NCCCc1ccc(C(=N)N)cc1", "note": "[Example 30, EtSO2 -D-Phe-Pro-p-NHCH2 CH2 CH2 -C6 H4 C(=NH)NH2.HCl]", "Human Plasma Anticoagulation 2x Clotting time APTT": "14,000 ng/mL"}
{"smiles": "N=C(N)Nc1ccc(CNC(=O)[C@@H]2CCCN2C(=O)[C@@H]2NCC[C@@H]3CCCC[C@@H]32)cc1", "note": "[Example 38, D-1-piq-pro-p-NHCH2 C6 H4 NHC(NH)NH2.2HCl]", "Human Plasma Anticoagulation 2x Clotting time APTT": "6,100 ng/mL"}
{"smiles": "N=C(N)c1ccc(CNC(=O)[C@@H]2CCCN2C(=O)[C@@H](CC2CCCCC2)NCC(=O)O)s1", "note": "[Example 65, N-(carboxymethyl)-D-cyclohexylalanyl-N-[[5-(aminoiminomethyl)thiophen-2-yl]methyl]-L-prolinamide hydrochloride]", "Human Plasma Anticoagulation 2x Clotting time APTT": "48 ng/mL"}
